Experimental data: patent US20210198277A1, “AMINE-SUBSTITUTED ARYL OR HETEROARYL COMPOUNDS” (Epizyme, Inc., priority 2016, published 2021)

Target: T1, EHMT2 (Homo sapiens, UniProt Q96KQ7)
T1 construct: host or cells: MDA-MB-231
T1 sequence (Q96KQ7 1-1210): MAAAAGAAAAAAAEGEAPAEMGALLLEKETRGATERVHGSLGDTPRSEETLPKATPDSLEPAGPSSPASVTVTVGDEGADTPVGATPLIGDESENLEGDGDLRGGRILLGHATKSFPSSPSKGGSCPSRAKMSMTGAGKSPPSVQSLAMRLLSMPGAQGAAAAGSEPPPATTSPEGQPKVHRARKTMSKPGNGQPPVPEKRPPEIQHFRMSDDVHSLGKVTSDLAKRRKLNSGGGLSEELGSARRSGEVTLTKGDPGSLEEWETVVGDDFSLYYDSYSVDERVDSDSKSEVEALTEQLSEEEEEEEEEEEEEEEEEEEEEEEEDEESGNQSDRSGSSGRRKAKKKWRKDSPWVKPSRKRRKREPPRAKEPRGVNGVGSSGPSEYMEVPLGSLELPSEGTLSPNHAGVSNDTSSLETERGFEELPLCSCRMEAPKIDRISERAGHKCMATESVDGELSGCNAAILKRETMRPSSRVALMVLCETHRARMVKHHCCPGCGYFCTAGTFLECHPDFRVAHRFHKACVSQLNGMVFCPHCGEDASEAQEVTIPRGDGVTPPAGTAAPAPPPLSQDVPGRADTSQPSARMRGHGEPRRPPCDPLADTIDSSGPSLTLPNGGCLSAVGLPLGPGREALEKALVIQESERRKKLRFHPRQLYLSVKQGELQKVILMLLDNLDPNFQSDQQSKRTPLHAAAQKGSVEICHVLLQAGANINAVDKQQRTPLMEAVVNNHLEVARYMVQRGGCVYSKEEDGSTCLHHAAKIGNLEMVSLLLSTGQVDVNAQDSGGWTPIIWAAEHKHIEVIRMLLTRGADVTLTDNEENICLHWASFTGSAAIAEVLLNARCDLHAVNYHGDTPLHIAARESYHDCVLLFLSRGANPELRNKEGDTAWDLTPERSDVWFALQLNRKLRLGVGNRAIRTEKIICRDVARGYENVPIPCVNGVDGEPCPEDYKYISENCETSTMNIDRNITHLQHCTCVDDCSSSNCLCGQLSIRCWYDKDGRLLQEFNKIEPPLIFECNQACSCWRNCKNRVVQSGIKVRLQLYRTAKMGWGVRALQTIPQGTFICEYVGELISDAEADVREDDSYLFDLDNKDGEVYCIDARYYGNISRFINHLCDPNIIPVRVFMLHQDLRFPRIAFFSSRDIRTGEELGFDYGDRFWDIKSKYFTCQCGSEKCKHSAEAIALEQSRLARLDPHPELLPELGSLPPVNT
Test: MDA-MB-231 H3K9me2 in-cell Western assay (EHMT2 ICW)
Format: cell-based
Conditions: Table III; MDA-MB-231 H3K9me2 in-cell Western; read-out: EHMT2 ICW (IC50 μM)
Outline: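 Infrared read-out at 800 and 700 nm (H3K9me2 antibody vs DRAQ5 DNA stain) of fixed MDA-MB-231 cells after 48 h compound treatment at 37 °C. Well ratios were converted to percent inhibition, and IC50 was obtained by variable-slope nonlinear regression on triplicates.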

SMILES | IC50 [µM]
CNc1cc(C)nc(Nc2ccc(OC)c(O[C@H]3C[C@H](N(C)C)C3)c2)n1 (single isomer, unassigned) [Compound 329, N^2-(3-((1r,3r)-3-(dimethylamino)cyclobutoxy)-4-methoxyphenyl)-N^4,6-dimethylpyrimidine-2,4-diamine] | > 10
COc1ccc(Nc2ccc3cnn(C)c3n2)cc1OCCCN1CCCC1 [Compound 257, N-(4-methoxy-3-(3-(pyrrolidin-1-yl)propoxy)phenyl)-1-methyl-1H-pyrazolo[3,4-b]pyridin-6-amine] | > 10
COc1ccc(Nc2cc3c(cn2)ncn3C)cc1OCCCN1CCCC1 [Compound 258, N-(4-methoxy-3-(3-(pyrrolidin-1-yl)propoxy)phenyl)-1-methyl-1H-imidazo[4,5-c]pyridin-6-amine] | > 10
COc1ccc(Nc2nccc(NCC3CCOCC3)n2)cc1OC1CCC2(CC1)CCN(C)C2 (stereo not shown) [Compound 259, N^2-(4-methoxy-3-((2-methyl-2-azaspiro[4.5]decan-8-yl)oxy)phenyl)-N^4-((tetrahydro-2H-pyran-4-yl)methyl)pyrimidine-2,4-diamine] | > 10
COc1ccc(Nc2nccc(NCC3CCOCC3)n2)cc1OC1CCC2(CC1)CN(C)C2 [Compound 260, N^2-(4-methoxy-3-((2-methyl-2-azaspiro[3.5]nonan-7-yl)oxy)phenyl)-N^4-((tetrahydro-2H-pyran-4-yl)methyl)pyrimidine-2,4-diamine] | > 10
CNc1cnnc(Nc2cc(OCCCN3CCCC3)c(OC)cn2)c1 [Compound 322, N^3-(5-methoxy-4-(3-(pyrrolidin-1-yl)propoxy)pyridin-2-yl)-N^5-methylpyridazine-3,5-diamine] | 0.1 to 1
CNc1cc(Nc2cc(OCCCN3CCCC3)c(OC)cn2)cnn1 [Compound 323, N^5-(5-methoxy-4-(3-(pyrrolidin-1-yl)propoxy)pyridin-2-yl)-N^3-methylpyridazine-3,5-diamine] | > 10
CNc1cc(Nc2cc(OCCCN3CCCC3)c(OC)cn2)ncn1 [Compound 324, N^4-(5-methoxy-4-(3-(pyrrolidin-1-yl)propoxy)pyridin-2-yl)-N^6-methylpyrimidine-4,6-diamine] | > 10
CNc1cc(Nc2cc(OCCCN3CCCC3)c(OC)cn2)nc(C)n1 [Compound 325, N^4-(5-methoxy-4-(3-(pyrrolidin-1-yl)propoxy)pyridin-2-yl)-N^6,2-dimethylpyrimidine-4,6-diamine] | 1 to 10
COc1cnc(Nc2nc(C)nc3[nH]ccc23)cc1OCCCN1CCCC1 [Compound 326, N-(5-methoxy-4-(3-(pyrrolidin-1-yl)propoxy)pyridin-2-yl)-2-methyl-7H-pyrrolo[2,3-d]pyrimidin-4-amine] | 1 to 10
CNc1nc(Nc2ccc(OC)c(OCCCN3CCCC3)c2)nc2c1CCC2 [Compound 328, N^2-(4-methoxy-3-(3-(pyrrolidin-1-yl)propoxy)phenyl)-N^4-methyl-6,7-dihydro-5H-cyclopenta[d]pyrimidine-2,4-diamine] | 1 to 10
CNc1cc(C)nc(Nc2ccc(OC)c(OC[C@H]3C[C@H](N(C)C)C3)c2)n1 [Compound 330] | > 10
CNc1cc(C)nc(Nc2ccc(OC)c(O[C@H]3C[C@H](CN(C)C)C3)c2)n1 [Compound 331, N^2-(3-((1r,3r)-3-((dimethylamino)methyl)cyclobutoxy)-4-methoxyphenyl)-N^4,6-dimethylpyrimidine-2,4-diamine] | > 10
CNc1cc(C)nc(Nc2cnc(OC)c(OCCCN3CCCC3)c2)n1 [Compound 332, N^2-(6-methoxy-5-(3-(pyrrolidin-1-yl)propoxy)pyridin-3-yl)-N^4,6-dimethylpyrimidine-2,4-diamine] | 0.1 to 1
CCn1nc(Nc2nccc3[nH]ccc23)cc1COCCN1CCCC1 [Compound 333] | > 10
COc1cnc(Nc2ccnc3[nH]ccc23)cc1OCCCN1CCCC1 [Compound 335, N-(5-methoxy-4-(3-(pyrrolidin-1-yl)propoxy)pyridine-2-yl)-1H-pyrrolo[2,3-b]pyridin-4-amine] | 1 to 10
